Test results taken from patent publication US9719191B2, “Methods for identifying ligands that target nucleic acid molecules and nucleic acid structural motifs” (The Research Foundation for The State University of New York, priority 2006, dated 2017).
Like-named read-outs stand apart in the source and are kept apart here.

Key:
[1] = tested on: oligonucleotide mimic of the bacterial rRNA A-site; settings: 6′ NH2 acetylated; cited from earlier work
[2] = target: DNA chase oligonucleotides 25+26; experiment: Fluorescence-based direct binding assay with 21-FL; settings: no change in fluorescence intensity up to 5 μM
[3] = target: RNA internal loop library 22; experiment: Fluorescence-based direct binding assay with 21-FL; settings: entire library
IL 34 = experiment: Competitive binding assay against 21-FL; settings: competition with 10 nM 21-FL, 75 nM IL 34
Experimental: (§1) To determine if selected loops have aminoglycoside preferences, the binding of five aminoglycosides, 21, kanamycin A, kanamycin B, tobramycin, and neamine (FIG. 7) to the pool of RNAs from spot 2+ (FIG. 10C) was probed using a competitive binding assay. […] We also tested a single RNA sequence identified to bind 21, IL 34, in the same manner.
(§2) A solution containing 75 nM IL 34 was refolded in 1× hybridization buffer+40 μg/mL BSA at 60° C. for 5 min. After slow cooling on the benchtop, 21-FL was added to a final concentration of 10 nM. The competing, unlabeled aminoglycoside was then added, and the resulting solution was serially diluted into 1× hybridization buffer+40 μg/mL BSA+10 nM 21-FL containing 75 nM IL 34. The solutions were equilibrated for 30 min at RT, and the fluorescence intensities were measured on a Bio-Tek HT fluorescence plate reader.

[4] = target: pool of RNAs from spot 2+; experiment: Competitive binding assay against 21-FL; settings: for Kd: competition with 10 nM 21-FL
Experimental: as §1, §2

empty cassette RNA 27 = experiment: Fluorescence-based direct binding assay with 21-FL
tRNAphe = experiment: Fluorescence-based direct binding assay with 21-FL
[5] = target: chase oligonucleotide 24 (GAAA hairpin mimic); experiment: Fluorescence-based direct binding assay with 21-FL; settings: no change in fluorescence intensity up to 5 μM
IL 7 = settings: RNase A and S1 nuclease, compound 0, 0.1, 1, 10, 100 μM
Experimental: (§3) The binding site of 2 was determined by enzymatic probing of IL 7 and R4 in the presence or absence of 2 with RNase A and S1 nuclease.
(§4) The binding site(s) of 2 was determined using a nuclease protection assay. For RNase A mapping experiments, radiolabeled oligonucleotide was annealed as described above. After slow cooling, serially diluted concentrations of 2 were added, and the resulting solution was allowed to equilibrate for 30 min at RT. Approximately 6 μunits of RNase A were added, and the reaction was allowed to proceed for 10 min. The reaction was quenched by addition of an equal volume of stop buffer, and the products were separated on a denaturing 17% polyacrylamide gel.
(§5) For S1 nuclease mapping experiments, the radiolabeled oligonucleotide was annealed as described except the buffer used was 50 mM sodium acetate (pH 4.5), 280 mM NaCl, and 4.5 mM ZnSO4. The solution was allowed to equilibrate for 30 min at RT after the addition of serially diluted concentrations of 2, and then 10 units of S1 were added. The reaction was quenched after 10 min at RT, and the products were separated on a denaturing 17% polyacrylamide gel.

hairpin cassette R4 = settings: RNase A and S1 nuclease, compound 0, 0.1, 1, 10, 100 μM
Experimental: as §3, §4, §5

[6] = target: pool of RNAs harvested from position 1+; experiment: Fluorescence-based direct binding assay with 21-FL; settings: higher ligand loading position 1+
[7] = tested on: RNA internal loop library 22; settings: chase oligonucleotides 23-26 in excess
IL 1 = settings: in presence of 2
Experimental: as §3

IL 16 = settings: in presence of 2
Experimental: as §3

[8] = target: chase oligonucleotide 23 (stem mimic duplex); experiment: Fluorescence-based direct binding assay with 21-FL; settings: no change in fluorescence intensity up to 5 μM
[9] = target: pool of RNAs harvested from position 2+; experiment: Fluorescence-based direct binding assay with 21-FL; settings: lower ligand loading position 2+
[10] = tested on: RNA 3×3 internal loop library (R1); experiment: Resin-based selection of RNA internal loops with immobilized kanamycin A; assay type: binding; settings: based on initial radioactivity eluted with kanamycin A; about 150 members
Experimental: Selections were completed by incubating a solution that contained 5′ end ^32P-labeled R1 in buffer with resin-immobilized kanamycin A. In addition to R1, a variety of other oligonucleotides were added to the incubation solution (R2-R4, D1, D2). […] The small number may be due to the manner in which the ligand was immobilized onto the resin (impairs the 6′ amino group from forming stabilizing contacts with RNA).
Each of the oligonucleotides was refolded separately in Hybridization Buffer (“HB”) containing 8 mM […] pH 7.0, 1 mM EDTA, and 185 mM NaCl by heating for 5 min at 65° C. and then cooling to RT on the benchtop. Oligonucleotides were then transferred to 4° C. and mixed together. Before the oligonucleotides were hybridized with the resin, 200 μg of BSA was added to the samples. Each selection experiment was completed with 10 picomoles of 5′-end labeled R1 and 20-fold higher concentration of each control oligonucleotide (R2-R4, D1, D2) over the concentration of R1.
A 100 μL aliquot of resin slurry (10 μL of resin) was placed into a 2.5 mL BioRad column and washed 3× with 1 mL of 4° C. HB. […] At this stage, liquid scintillation counting was used to ensure that only background radioactivity was being eluted from the column. […]

[11] = target: 1×1 CC internal loop derived from the untranslated region in thymidylate synthase mRNA; settings: 1 mM MgCl2 and CaCl2, 150 mM NaCl, 5 mM KCl, 20 mM HEPES (pH 7.5); read-out: dissociation constant; cited from earlier work
[12] = tested on: immobilized 6′-N-5-hexynoate kanamycin A (2) / radiolabeled IL 7; experiment: Array-based competitive binding assay: competitor RNA against trace 32P-labeled IL 7 on immobilized 2; settings: for IC50: read-out: IC50 (concentration of competitor that inhibited 50% of the binding of radioactively labeled IL 7), competitor RNA, immobilized 2 in microwells, 30 min at RT
Description: Typically microarray experiments can be used to probe the binding of a variety of small molecules to a single or a few analytes at once. In order to increase the number of conditions that can be probed on a single array, we affixed a silicon gasket that created 50 microwells on the surface of each chip (FIG. 5A). These microwells converted the array into a miniaturized 50-well plate that is easily functionalized to display kanamycin. Compound 2 was immobilized in each microwell at a constant concentration. Binding experiments were completed by delivering 10 μL of a solution containing serially diluted concentrations of the internal loop of interest and trace 5′end ^32P labeled IL 7 into each microwell. Dose response curves were constructed and fit to determine the concentration of competitor that inhibited 50% of the binding of the radioactively labeled RNA (FIG. 3, FIG. 5B, and FIG. 5C). FIG. 5B is a representative autoradiogram for binding selected RNAs relative to binding of control oligonucleotides R2, R3, D1 and D2, and R4, the cassette without an internal loop.
In order to determine which concentration of 2 was optimal for competitive binding assays, serially diluted 2 was applied to the chip surface and allowed to react for 2 h at RT inside the microwell of a silicon gasket (GRACE Biolabs, CWCS 50R-1.0, C-24780) (FIG. 5A). Each of the wells was washed twice with water, and the slide was dried in air. The 5′ end ^32P radiolabeled IL 7 was annealed in 1×HB+40 μg/mL of BSA at 60° C. for 5 min and allowed to slow cool on the benchtop for 10 min. It is important to note that the hybridization buffer contains 1 mM EDTA, or 50 equivalents compared to the amount of Cu^2+ used for the click reaction. […] The annealed RNA oligonucleotide was hybridized with the chip surface for 30 min at RT. […]
IC50's were determined by incubating serially diluted competitor RNA and trace radiolabeled IL 7 in microwells formed using a silicon gasket. […] The data were quantified using Bio-Rad's QuantityOne software, and the IC50's were determined using SigmaPlot's four-parameter logistical curve fit.

[13] = listed as 6′ hexynoate kanamycin A

**Q.** For `CC(=O)NCC1OC(OC2C(N)CC(N)C(OC3OC(CO)C(O)C(N)C3O)C2O)C(O)C(O)C1O` (stereo not drawn) [6′ acetylated kanamycin A], which “reduction in binding relative to the parent aminoglycoside” value [1] is on record?
**A.** several orders of magnitude

**Q.** Which Kd [2] does the source give for `C#CCCCC(=O)NC[C@@H]1O[C@@H](O[C@H]2[C@H](O)[C@@H](O[C@@H]3O[C@@H](CO)[C@H](O)[C@@H](N)[C@@H]3O)[C@H](N)C[C@@H]2N)[C@@H](O)[C@H](O)[C@H]1O` [Compound 21, 6′-N-5-hexynoate kanamycin A] here?
**A.** > 5 µM

**Q.** And the Kd [3]?
**A.** 280 nM

**Q.** And the Kd (IL 34; read-out: Kd)?
**A.** 7 nM

**Q.** What about the Kd [4] of the same compound?
**A.** 12 nM

**Q.** And the Kd (empty cassette RNA 27)?
**A.** 1300 nM

**Q.** What about the Kd (tRNAphe) of the same compound?
**A.** 700 nM

**Q.** And the Kd [5]?
**A.** > 5 µM

**Q.** And the “nucleotides protected from cleavage” value (IL 7; listed as 2)?
**A.** only nucleotides in the loop and the surrounding base pairs in IL 7 are protected from cleavage

**Q.** What about the “nucleotides protected from cleavage” value (IL 7; [13]) of the same compound?
**A.** occurs only in the randomized regions

**Q.** And the “nucleotides protected from cleavage” value (hairpin cassette R4; listed as 2)?
**A.** No nucleotides in the cassette R4 are protected

**Q.** What about the “nucleotides protected from cleavage” value (hairpin cassette R4; [13]) of the same compound?
**A.** no nucleotides are protected from modification

**Q.** What about the Kd [6] of the same compound?
**A.** 65 nM

**Q.** What about the “binding of library members on the array” value [7] of the same compound?
**A.** concentration-dependent binding

**Q.** And the “DEPC modification of loop nucleotides” value (IL 1)?
**A.** decreased modification

**Q.** What about the “DEPC modification of loop nucleotides” value (IL 16) of the same compound?
**A.** decreased modification

**Q.** And the Kd [8]?
**A.** > 5 µM

**Q.** What about the Kd [9] of the same compound?
**A.** 11 nM

**Q.** Which Kd (IL 34; read-out: Kd) does the source give for `NC[C@H]1O[C@H](O[C@H]2[C@H](O)[C@@H](O[C@H]3O[C@H](CO)[C@@H](O)[C@H](N)[C@H]3O)[C@H](N)C[C@@H]2N)[C@H](O)[C@@H](O)[C@@H]1O` [kanamycin A] here?
**A.** 5 nM

**Q.** And the Kd [4]?
**A.** 9 nM

**Q.** And the “percentage of the 4096-member library bound to immobilized ligand” value [10]?
**A.** ~4%

**Q.** What does the source list for `NC[C@H]1O[C@H](O[C@H]2[C@H](O)[C@@H](O[C@H]3O[C@H](CO)[C@@H](O)[C@H](N)[C@H]3O)[C@H](N)C[C@@H]2N)[C@H](N)[C@@H](O)[C@@H]1O` [kanamycin B]?
**A.** Kd (IL 34; read-out: Kd): 5 nM; Kd [4]: 12 nM; Kd [11]: 1100 nM

**Q.** Which results are given for `NC[C@H]1O[C@H](O[C@H]2[C@H](O)[C@@H](O)[C@H](N)C[C@@H]2N)[C@H](N)[C@@H](O)[C@@H]1O` [neamine]?
**A.** Kd (IL 34): much weaker; Kd [4]: > 500 nM

**Q.** For `NC[C@H]1O[C@H](O[C@H]2[C@H](O)[C@@H](O[C@H]3O[C@H](CO)[C@@H](O)[C@H](N)[C@H]3O)[C@H](N)C[C@@H]2N)[C@H](N)C[C@@H]1O` [tobramycin], which Kd (IL 34) is on record?
**A.** much weaker

**Q.** And the Kd [4]?
**A.** 85 nM

**Q.** And the fold weaker binding ([4]; relative to 21, kanamycin A and kanamycin B)?
**A.** approximately 9 fold

**Q.** What about the Kd [11] of the same compound?
**A.** 870 nM

**Q.** With “IL 1: selected RNA internal loop (SEQ ID NO:12), 5′UU/3′UC 2×2 loop closed by A-U pairs (GGGAGAGGGUUUAAUUUUUACGAAAGUAACUAUUGGAUCCGCAAGG; listed as RNA, chemistry not given here)” as the compound, how does the IC50 [12] read?
**A.** 2.2 nM

**Q.** For “IL 2: selected RNA internal loop (SEQ ID NO:13), 5′UU/3′UC 2×2 loop, one closing A-U pair in different orientation (GGGAGAGGGUUUAAUAUCUACGAAAGUAUUUAUUGGAUCCGCAAGG; listed as RNA, chemistry not given here)”, which IC50 [12] is on record?
**A.** 3.3 nM

**Q.** With “IL 17: selected RNA internal loop (SEQ ID NO:14 series; SEQ ID NO:28), U replaced with C and closing pair GC (GGGAGAGGGUUUAAUCUUUACGAAAGUACCGAUUGGAUCCGCAAGG; listed as RNA, chemistry not given here)” as the compound, how does the “fold weaker binding relative to IL 1 and IL 2” value [12] read?
**A.** ~10 fold
